Common to all, as to type: cell-based
In data set [1] the test system is Herpes simplex-Viren. The data set is described as follows: Plaque inhibition test (Plaquehemmungstest, agar diffusion test). As to conditions: read-out: Hemmhofdurchmesser (mm). An excerpt:
Der Plaquehemmungstest (Agardiffusionstest) wird nach der Methode von E. C. Herrmann et al., 1960 (6) durchgeführt. Auch bei diesem Test werden virusinfizierte tierische Zellkulturen verwendet. In diesem Fall wird in Petrischalen durch ein mit Hilfe von Agar verfestigtes Medium das unkontrollierte Ausbreiten der Viren verhindert. Es kommt zu einer lokal begrenzten Zerstörung der Zellen, die nach einer Färbung als Löcher im Zellrasen erkennbar ist. Die Testsubstanzen werden auf Filterpapierblättchen aufgetragen und auf das feste Medium aufgelegt. In einem Bereich um diese Blättchen werden durch die virustatische Wirkung der Testsubstanz die Zellen geschützt und es entstehen so kreisförmige Hemmzonen. Die Größe der Hemmzone kann als Maß für die virustatische Wirksamkeit ausgewertet werden.
Durchführung: Ein Monolayer von MK2-, HeLa-, Rita-Zellen oder einer anderen geeigneten Zellinie wird in einer Petrischale mit Viren infiziert, so daß eine große Zahl von einzelnen Plaques entsteht. Nach einer Bindung von 45 Minuten bei Zimmertemperatur wird der Zellrasen einmal mit phosphatgepufferter Kochsalzlösung gewaschen und mit einer Agar-Oberschicht versehen. Auf diese Agarschicht werden Filterpapierblättchen (10 mm Durchmesser) gelegt, die mit einer Lösung der Testsubstanz getränkt sind. Nach 48 bis 72 Stunden Bebrütung bei 37 °C in CO2-Atmosphäre (5 %) wird eine zweite Oberschicht darübergegeben, die den Vitalfarbstoff Tetrazoliumchlorid enthält. Nach weiteren 24 Stunden Bebrütung wird der Hemmhofdurchmesser, unterteilt in "toxische Zone" und "therapeutische Zone", in mm ausgemessen.
On the technique in general: Agar diffusion results depend on both activity and mobility in agar.

The next data set deals with Hela-Zellen. The data set is described as follows: Dye test (Farbtest), parallel runs without virus: cytotoxicity. The conditions noted are these: for Extinktion bei 546 nm Hela-Zellen: cells without virus, 72 h. An excerpt: (§1) Der Farbtest, wie von Armstrong, 1971 (5) beschrieben, beruht darauf, daß die durch die Viren zerstörten Zellen nicht mehr gefärbt werden können. Je höher der Anteil an intakten Zellen nach der Inkubation mit dem jeweiligen Virus durch die virustatische Wirkung einer Substanz ist, um so mehr Farbstoff wird gebunden. Der Farbstoff läßt sich aus den gefärbten Zellen extrahieren und seine Menge kann in einem Photometer, z. B. bei Verwendung von Kristallviolett bei 546 nm, gemessen werden. Damit erlaubt der Test meßbare und reproduzierbare Angaben sowohl über die virustatische, wie auch durch Parallelversuche mit Zellkulturen ohne Viren über die cytotoxische Wirkung von Substanzen.
(§2) Durchführung: 10 mg der Testsubstanz wurden in 10 ml Ethylalkohol gelöst. Unter Verwendung des Mediums für die Zellkultur wurde eine Verdünnungsreihe mit Konzentrationen von 1,56 µg/ml bis 25 µg/ml Testsubstanz eingestellt. Diese Lösungen werden auf 24 Stunden alte MK2-, HeLa-, Rita-Zellen oder andere geeignete Zellen gegeben, nachdem diese vorher 45 Minuten zur Infektion mit einer Suspension von Viren überschichtet worden waren. Zur Prüfung der Cytotoxizität werden Parallelansätze ohne Viruszugabe analog mit den verschiedenen Verdünnungsstufen der Prüfsubstanz überschichtet. Die Versuchsansätze mit Virus und Testsubstanz bzw. nur der Testsubstanz werden 72 Stunden bei 37 °C bebrütet. Anschließend werden die Zellen fixiert und für 15 Minuten mit Kristallviolettlösung gefärbt. Nach Spülen mit Wasser wird der an die Zellen gebundene Farbstoff mit Ethanol extrahiert und in einem Photometer die Extinktion bei 546 nm (Absorption für Kristallviolett) gemessen.

Data set [2] concerns HHV 6 (Human herpes-Virus Typ 6). The data set is described as follows: Virus replication in human lymphocyte cultures, passages in presence of substance. As to conditions: 10 µg/ml, after three passages. An excerpt: In weiteren Versuchen wurde die Wirkung von Alizarin auf die Vermehrung von HHV 6 (Human herpes-Virus Typ 6) untersucht. Diese Viren lassen sich aus dem Blut von immunsupprimierten Patienten mit Leukämie, Lymphomen oder Aids sowie von Kindern mit Roseola infantum isolieren.
Die Testung erfolgte in menschlichen Lymphocytenkulturen.

In data set [3] the test system is Herpes simplex-Viren. The data set is described as follows: Dye test (Farbtest, crystal violet): virustatic effect in virus-infected cell cultures. As to conditions: for Extinktion bei 546 nm Hela-Zellen mit Herpes-Virus: virus control 0,144, cell control 0,648.
Excerpt: as §1, §2
Zur Auswertung werden die Extinktionen und auch die Konzentration mit einem Zellschutz von 50 % berechnet.
Falls die Testsubstanz keine wesentlichen cytotoxischen Eigenschaft besitzt, kann die antivirale Schutzwirkung nach nach folgender Formel in Prozent berechnet werden: (E3 - E2)/(E1 - E2)x 100 [formula] E1 = Extinktion der Zellkontrolle E2 = Extinktion der Viruskontrolle E3 = Extinktion der Versuchsansätze mit Virus und Alizarin

For the next data set, the system named is Cytomegalie-Viren. The data set is described as follows: Plaque reduction test (Plaquereduktionstest) in human foreskin fibroblasts. As to conditions: Fibroblast, plaque count versus virus control, read-out: Hemmung (%). The text has this: Für die Prüfung der Wirksamkeit gegenüber Cytomegalie-Viren (CMV) werden mit diesen Viren infizierte menschliche Vorhautfibroblasten eingesetzt. Nach der Inkubation werden die entstandenen Plaques angefärbt und ausgezählt. Zur Auswertung wird die Plaquezahl unter dem Einfluß einer definierten Substanzmenge mit der Viruskontrolle verglichen.
Mit einer ähnlichen Versuchsanordnung wie im Plaquehemmungstest kann die Wirkung des Alizarins gegen Cytomegalie-Viren bestimmt werden (siehe Plaquereduktionstest, Methode 3). Die Untersuchung für das Cytomegalie-Virus in einer Zellinie von menschlichen Vorhautfibroblasten ergab die in Tabelle II angegebenen Werte für die Hemmung im Vergleich zur Viruskontrolle. Zur Auswertung wurden hier die gebildeten Plaques gezählt und im Vergleich zur Viruskontrolle ausgewertet (siehe Tabelle II). Tabelle II

Where [4] appears, read: Substanzmenge 10 µg/ml pro Testblättchen, Rita-Zellen.
The mark [5] stands for this setting: Substanzmenge 20 µg/ml pro Testblättchen, Rita-Zellen.
Setting [6] is: Substanzmenge 40 µg/ml pro Testblättchen, Rita-Zellen.

≈ marks a conversion by molar mass, not a printed value. Like-named read-outs stand apart in the source and are kept apart here.

On to `O=C1c2cccc(O)c2C(=O)c2c(O)cccc21` [Chrysazin (4), 1,8-Dihydroxyanthrachinon], for which the zone of inhibition at 10 µg/mL in the data set on Herpes simplex-Viren [1] (setting [4]) came out at 8 mm. Further, in the data set with Herpes simplex-Viren [1] (setting [5]), the zone of inhibition at 20 µg/mL was 12 mm. In addition, the zone of inhibition at 40 µg/mL in the data set on Herpes simplex-Viren [1] (setting [6]) is 16 mm.
Consider `O=C1c2ccc(O)cc2C(=O)c2ccc(O)cc21` [Anthraflavinsäure (5), 2,6-Dihydroxyanthrachinon], for which the zone of inhibition at 10 µg/mL in the data set with Herpes simplex-Viren [1] (setting [4]) is 9 mm. In the data set on Herpes simplex-Viren [1] (setting [5]), the zone of inhibition at 20 µg/mL is 13 mm. The zone of inhibition at 40 µg/mL in the data set on Herpes simplex-Viren [1] (setting [6]) stood at 15 mm.
Take `O=C1c2ccccc2C(=O)c2c1cc(S(=O)(=O)O)c(O)c2O` [Alizarinsulfonsäure (2), 9,10-Dihydro-3,4-dihydroxy-9,10-dioxo-2-anthracensulfonsäure.Mononatriumsalz]: the zone of inhibition at 10 µg/mL in the data set with Herpes simplex-Viren [1] (setting [4]) was 10 mm. Moreover, the zone of inhibition at 20 µg/mL with Herpes simplex-Viren [1] (setting [5]) turned out to be 12 mm. Further, the zone of inhibition at 40 µg/mL in the data set with Herpes simplex-Viren [1] (setting [6]) came out at 19 mm.
With `O=C1c2ccccc2C(=O)c2c(O)ccc(O)c21` [Chinizarin (3), 1,4-Dihydroxyanthrachinon], the zone of inhibition at 10 µg/mL in the data set on Herpes simplex-Viren [1] (setting [4]) was 11 mm. Further, the zone of inhibition at 20 µg/mL with Herpes simplex-Viren [1] (setting [5]) stood at 13 mm. For the same molecule, in the data set with Herpes simplex-Viren [1] (setting [6]), the zone of inhibition at 40 µg/mL worked out at 16 mm.
As to `O=C1c2ccccc2C(=O)c2c1ccc(O)c2O` [Alizarin, 1,2-Dihydroxy-9,10-anthracendion], the “Extinktion bei 546 nm Hela-Zellen” value is 0,328 in the data set on Hela-Zellen (25 µg/ml); 0,693 with Hela-Zellen (3,125 µg/ml); 0,655 in the data set on Hela-Zellen (1,56 µg/ml); 0,634 in the data set with Hela-Zellen (6,25 µg/ml); 0,510 with Hela-Zellen (12,5 µg/ml). In the data set with Hela-Zellen (at the higher concentrations of Tabelle I a / I b), the “cytotoxische Wirkung” value is listed as “schwache cytotoxische Wirkung”. The “Virus nachweisbar in den Zellen” value in data set [2] is recorded as “kein Virus mehr nachweisbar”. Also, the zone of inhibition at 10 µg/mL in the data set with Herpes simplex-Viren [1] is 14 mm. Further, the zone of inhibition at 20 µg/mL in the data set on Herpes simplex-Viren [1] was found to be 18 mm. In the data set with Herpes simplex-Viren [1], the zone of inhibition at 40 µg/mL worked out at 20 mm. In addition, the “Extinktion bei 546 nm Hela-Zellen mit Herpes-Virus” value is 0,235 in the data set with Herpes simplex-Viren [3] (25 µg/ml, 72 h); 0,329 in the data set on Herpes simplex-Viren [3] (3,125 µg/ml, 72 h); 0,206 with Herpes simplex-Viren [3] (1,56 µg/ml, 72 h); 0,403 in the data set with Herpes simplex-Viren [3] (6,25 µg/ml, 72 h); 0,338 in the data set on Herpes simplex-Viren [3] (12,5 µg/ml, 72 h). In addition, the inhibition at 3.125 µg/mL in the data set on Herpes simplex-Viren [3] (72 h, 3.125 µg/mL, Hela-Zellkulturen, read-out: Zellschutz (%)) came out at 37%. In the data set on Herpes simplex-Viren [3] (72 h, 25 µg/ml, Hela-Zellkulturen, read-out: Zellschutz (%)), the inhibition at 25 µg/mL was 18%. Besides, in the data set with Herpes simplex-Viren [3] (72 h, 1,56 µg/ml, Hela-Zellkulturen, read-out: Zellschutz (%)), the inhibition at 1.56 µg/mL is 12%. The inhibition at 6.25 µg/mL in the data set with Herpes simplex-Viren [3] (72 h, 6,25 µg/ml, Hela-Zellkulturen, read-out: Zellschutz (%)) was determined as 51%. Besides, the inhibition at 12.5 µg/mL with Herpes simplex-Viren [3] (72 h, 12,5 µg/ml, Hela-Zellkulturen, read-out: Zellschutz (%)) is 38%. In addition, the EC50 with Herpes simplex-Viren [3] (experiment of Tabelle I a, read-out: Konzentration, die einen Zellschutz von 50 % bewirkt) is 5.96 µg/mL (≈ 24.8 µM). In addition, the IC50 in the data set on Herpes simplex-Viren [3] (in presence of 10 % Serum, read-out: 50 % Hemmwert) was 11.3 µg/mL; with Herpes simplex-Viren [3] (mean of four experiments, read-out: Mittelwert für eine 50 %ige Hemmung der Virusvermehrung) it was 4.87 µg/mL (≈ 20.3 µM). Besides, in the data set with Cytomegalie-Viren (5 µg/ml), the inhibition at 5 µg/mL is 10%. In addition, in the data set on Cytomegalie-Viren (10 µg/ml), the inhibition at 10 µg/mL turned out to be 60%. Moreover, in the data set on Cytomegalie-Viren (15 µg/ml), the inhibition at 15 µg/mL is 100%. In addition, the inhibition at 20 µg/mL in the data set on Cytomegalie-Viren (20 µg/ml) is 100%.

For the origin of these results see patent EP0454058B1, “Use of anthraquinone derivatives in the prophylaxis and treatment of viral diseases” (LOMAPHARM Rudolf Lohmann GmbH KG Pharmazeutische Fabrik, priority 1990, dated 1991).
